Assay results from US20190160093A1, “THERAPEUTIC AGENT FOR DISEASE ACCOMPANIED BY EPILEPTIC WAVES” (TAIYO NIPPON SANSO CORPORATION, priority 2010, published 2019).
Where two headings read alike, the source gives them in different places.

Assays:
[1] = test system: epileptic model rat (GRY rat); experiment: Electroencephalogram spike index of epileptic model rat (GRY rat); assay type: in vivo; details: GRY rats
Text: In the present Example, a GRY rat (groggy rat, Cacnala) was used as an epileptic model rat. A GRY rat constantly develops an epileptic seizure in normal conditions, and therefore is an extremely excellent system to evaluate a seizure by subjecting the GRY rat to a treatment. The GRY rat has a mutation in an al subunit of a P/Q-type voltage-dependent calcium channel Cav2.1 which encodes Cacnala gene, and is an epileptic model rat which mainly develops ataxia and absence seizure. The GRY rat takes a mode of autosomal recessive inheritance. The 752nd nucleotide “T” of the Cacnala gene has mutated to “A”. As a result, a codon “ATG” to specify methionine which is the 251st amino acid has mutated to a codon “AAG” to specify lysine (M251K). It has been reported that this mutation is located at extracellular p-loop forming a pore of a calcium channel domain 1 and that this mutation (M251K) results in abnormality of a function of the voltage-dependent calcium ion channel Cav2.1 of the rat (Reference Literatures 1 and 2). The GRY rats with this mutation show extension abnormalities of hind limbs, walking abnormalities, and ataxia, and a seizure which is accompanied with spike and wave discharges of 7-8 Hz on the electroencephalograms from 6-8 weeks of age. The present model rats were dispensed from Institute of Laboratory Animals, Graduate School of Medicine, Kyoto University.
Male GRY rats were anesthetized by administering 35 mg/kg of pentobarbital sodium (Nembutal, Sumitomo Dainippon Pharma Co. Ltd.) intraperitoneally, and were fixed to a brain stereotaxic fixing apparatus (SR-5M, NARISHIGE Group). The head was shaved, the skin was incised along the median line, and the skull was exposed. A small hole was opened on the frontal lobe cortex and the occipital lobe cortex on both sides using a dental drill (FALCON, Morita Corporation). A stainless steel screw electrode (FUKUOKA RASHI) having a diameter of 0.9 mm and a length of 1.7 mm and connected a stainless steel wire having a diameter of 0.2 mm (M T Giken) was embedded in the hole (refer to FIG. 1). A screw electrode was embedded in the root of nose as a Z electrode, and a screw electrode was embedded in the cerebellum as an indifferent electrode. Each electrode was connected to a connector socket (Hirose Electric Co. Ltd.), and fixed to the skull with dental cement (Uni Fast II, GC Dental Products).
The rats placed in the multi-gas concentration control apparatus adjusted to a concentration of carbon dioxide of 5% (v/v), 7% (v/v), or 10% (v/v) were subjected to simultaneous video-electroencephalographic recording. Rats placed in the air were used as a control.
Electroencephalograms of the frontal lobe cortex and the occipital lobe cortex of the rats were measured using an electroencephalograph (Neurofax EEG-1200, NIHON KOHDEN CORPORATION). A spike index was used as an index of evaluation of a seizure. The spike index represents a ratio of duration of a spike in measurement time (15 minutes). The spike means a waveform indicating a sharp change in potential in a short time (refer to FIG. 3).
Carbon dioxide was administered to rats by placing the rats in the multi-gas concentration control apparatus adjusted to a concentration of carbon dioxide of 10% (v/v) (9 rats).
By placing the rats in the multi-gas concentration control apparatus, the rats were administered with 10% (v/v) carbon dioxide, and subjected to simultaneous video-electroencephalographic recording every 15 minutes for one hour, and an effect of suppressing an epileptic seizure (spike index) was measured before and after the administration of carbon dioxide.
Next, electroencephalograms were measured.

[2] = Blood concentration, blood pH and blood bicarbonate ion after acetazolamide in GRY rats
[3] = test system: epileptic model rat (Kyo811 rat); experiment: Electroencephalogram and seizure duration of Kyo811 rats with febrile seizures induced by thermal load; assay type: in vivo; details: febrile seizures by warm bath at 45° C., carbon dioxide 10% (v/v) vs normal air
Text: In epilepsy, about 80% of patients of intractable Dravet syndrome (formerly, referred to as Severe Myoclonic Epilepsy in Infancy: SMEI), and about 5-10% of patients of benign generalized epilepsy with febrile seizure plus: GEFS+) have missense mutations in a voltage-dependent sodium channel a subunit type 1 (SCN1A) gene. Therefore, it is considered that the mutations in the SCN1A gene are involved in development of febrile seizures (Reference Literatures 3 and 4). In the present Reference Example, using the Kyo811 rats having a mutation in the Scn1a gene as a genetic factor, suppressive effect of seizure by carbon dioxide was examined. This rat is a febrile seizure model rat which induces febrile seizures by a thermal load, and a GEFS+ model rat.
A Kyo811 rat was prepared as a rat with a mutation in the voltage-dependent sodium channel Scn1a gene by the following technology. […]
After a one-week recovery period, the rats were put into a warm bath at 45° C. for about 3-4 minutes to induce febrile seizures, and electroencephalograms were measured.
Immediately after the seizure was induced, the rats were placed in the multi-gas concentration control apparatus adjusted to the concentration of carbon dioxide of 10% (v/v) or the concentration of the normal air, and the situation of the seizure was observed while electroencephalograms were measured continuously. […]

[4] = Blood pH and blood gas of GRY rats placed in gas containing carbon dioxide or oxygen; assay type: in vivo, rat
Experimental: In order to control a concentration of carbon dioxide, multi-gas incubator (MCO-5M; Sanyo Electric Co., Ltd.) was used as a multi-gas concentration control apparatus to adjust the concentration of carbon dioxide in the incubator. A concentration of oxygen was also adjusted for comparison. Main components of the normal dry air are 0.032% (v/v) of carbon dioxide, 20.946% (v/v) of oxygen, and 78.084% (v/v) of nitrogen. Therefore, using the above-described multi-gas concentration control apparatus, the concentration of carbon dioxide was set to 5% (v/v), 7% (v/v), or 10% (v/v), or the concentration of oxygen was set to 17% (v/v). When the concentration of carbon dioxide was adjusted, carbon dioxide gas supplied from a carbon dioxide gas bottle connected to the apparatus was diluted with the air outside. Therefore, carbon dioxide=10% (v/v), oxygen=about 18.85% (v/v), and nitrogen=about 70.28% (v/v). When the concentration of oxygen was set to 17% (v/v), similarly, the concentration was adjusted using nitrogen gas supplied from a nitrogen gas bottle connected to the apparatus. Therefore, carbon dioxide=0.026% (v/v), oxygen=about 17% (v/v), and nitrogen=about 82.974% (v/v). It was confirmed using a gas analyzer AGA-2008 (Astec Co. Ltd.) that each concentration in the incubator was correct under the set conditions.
The surgery of embedding an electrode for measurement of electroencephalograms was performed to eight male GRY rats (9 weeks old). After a one-week recovery period, the GRY rats were placed for one hour in the multi-gas concentration control apparatus adjusted to a concentration of carbon dioxide of 5% (v/v), 7% (v/v), or 10% (v/v), or a concentration of oxygen of 17% (v/v).
Blood samples were collected from the tail vein of the rats placed in the multi-gas concentration control apparatus, and the blood pH and the blood concentration of carbon dioxide were measured using an i-STAT analyzer (Fuso Pharmaceutical Industries, Ltd.) as a blood gas analyzer.
Carbon dioxide or oxygen was administered to rats by placing the rats in the multi-gas concentration control apparatus adjusted to a concentration of carbon dioxide of 10% (v/v) or a concentration of oxygen of 17% (v/v) for 15 minutes, 30 minutes, 45 minutes, or 60 minutes (5-6 rats for each). Rats placed in the multi-gas concentration control apparatus adjusted to a concentration of the normal air were used as a control.

[5] = Blood pH of Kyo811 rats after febrile seizures and carbon dioxide; assay type: in vivo, rat; details: Kyo811 rats after febrile seizures, carbon dioxide 10% (v/v)
Experimental: Immediately after the seizure was induced, the rats were placed in the multi-gas concentration control apparatus adjusted to the concentration of carbon dioxide of 10% (v/v) or the concentration of the normal air, and the situation of the seizure was observed while electroencephalograms were measured continuously.
As a control, the blood pH of the rats (10 rats) before induction of febrile seizures was measured. As a result, it was confirmed that the increase in the concentration of carbon dioxide to 10% (v/v) reduced the blood pH of the rats (FIG. 14).

[6] = cited from earlier work
8-11 days-old rats = details: rats in a chamber containing 5% carbon dioxide; cited from earlier work
[7] = 50 mg/kg intraperitoneally, 15, 30, 45 and 60 minutes after the administration, saline control
[8] = 10% (v/v) carbon dioxide for 15 to 60 minutes
[9] = carbon dioxide 5% (v/v), 7% (v/v) or 10% (v/v), one hour
[10] = concentration of oxygen 17% (v/v), one hour

CC(=O)Nc1nnc(S(N)(=O)=O)s1 [acetazolamide, Acetazolamide]
spike duration of a seizure ([1]; acetazolamide 50 mg/kg intraperitoneally, vs non-administration group): significantly suppresses
time after administration of highest blood concentration of acetazolamide ([2]; 50 mg/kg intraperitoneally): 15 min
blood bicarbonate ion as compared with the control group [2, 7]: significantly low
blood pH as compared with the control group [2, 7]: significantly low
blood pH ([2]; 30 minutes after the administration of 50 mg/kg): 7.08±0.03

O=C=O [carbon dioxide]
epileptiform discharges, duration of a spike [3]: suppressed significantly
seizure duration (second) [3]: suppressed significantly
blood concentration of carbon dioxide [4, 8]: increased
blood pH [4, 8]: reduced
blood concentration of carbon dioxide [4, 9]: increased
blood pH [4, 9]: reduced
blood pH ([4]; environment of 10% (v/v) carbon dioxide): 7.27
time the effect of suppressing a seizure lasts after the administration ([1]; 10% (v/v) carbon dioxide): ≥ 30 min
average spike index (spike index for 15 minutes before administration assumed to be 1) ([1]; 10% (v/v) carbon dioxide, 0-15 minutes): 0.0074
average spike index (spike index for 15 minutes before administration assumed to be 1) ([1]; 10% (v/v) carbon dioxide, 16-30 minutes): 0.054
average spike index (spike index for 15 minutes before administration assumed to be 1) ([1]; 10% (v/v) carbon dioxide, 31-45 minutes): 0.275
average spike index (spike index for 15 minutes before administration assumed to be 1) ([1]; 10% (v/v) carbon dioxide, 46-60 minutes): 0.416
effect of suppressing a seizure ([1]; 10% (v/v) carbon dioxide, 15 minutes after the administration): suppress a seizure almost completely
epileptiform discharges, duration of a spike ([1]; 10% (v/v) carbon dioxide, five minutes from 25 seconds after starting vs five minutes before administration): suppressed significantly
epileptiform discharges, duration of a spike ([1]; carbon dioxide 7% (v/v) or 10% (v/v), control rats in the air): suppressed significantly
blood pH [5]: reduced
effect of carbon dioxide gas in the air ([6]; concentration of 1 to 2% (v/v)): causes discomfort
effect of carbon dioxide gas in the air ([6]; concentration of 3 to 4% (v/v)): stimulates the respiratory center
effect of carbon dioxide gas in the air ([6]; concentration of 6 to 7% (v/v)): makes breathing difficult
effect of carbon dioxide gas in the air ([6]; concentration of 7 to 10% (v/v)): causes unconsciousness in a few minutes
alkalosis in the brain (8-11 days-old rats): can be suppressed

O=O [oxygen, reference compound]
blood concentration of carbon dioxide [4, 10]: reduced
blood pH [4, 10]: increased
